# From US20220402980A1, “CHROMOGRANIN A-DERIVED PEPTIDES AND USES THEREOF” (OSPEDALE SAN RAFFAELE S.R.L., priority 2019, published 2022)
# Where two headings read alike, the source gives them in different places. Where no end group is shown, it is not given here.
# Legend:
# BxPC-3 cells = experiment: Binding of peptide-IRDye conjugates to cultured BxPC-3 cells; type: cell-based, human; settings: BxPC-3 (αvβ6+ αvβ8-), 1 h at 37° C.
# Method: (§1) B) Binding of the indicated peptide-IRDye conjugates to the various cell lines. Various amounts of conjugates were added to cell monolayers (grown in 96-well microtiter plates) and incubated for 1 h at 37° C., 5% CO2 (see Experimental section). After washing, bound fluorescence was measured using an Odyssey CLx (LI-COR) scanner. A representative image of the scanned plate and binding quantification are reported. Mean ±SE of quadruplicate wells.
# (§2) Various amounts of unlabeled peptides were mixed 5a-IRDye (4 nM) and added to the cells. After 1 h, the plates were washed, and the bound fluorescence was quantified as described above (left panels).
# (§3) The binding of peptide-IRDye conjugates to BxPC-3, 5637, HUVECs, 4T1, K8484 and DT6606 cells was analyzed as follows. The cells were grown in 96-well clear-bottom black microtiterplates (Corning® cat. 3603, 2-3x10^4 cells/well, plated 48 h before the experiment). After washing twice with 0.9% sodium chloride solution, the cells were incubated with 25 mM Hepes buffer, pH 7.4, containing 150 mM sodium chloride, 1 mM magnesium chloride, 1 mM manganese chloride and 1% BSA (binding buffer) for 5 min. Peptide-IRDye conjugates (0.013-40 nM in binding buffer) were then added to the cells and left to incubate for 1 h at 37° C., 5% CO2. After three washings with binding buffer (5 min each, 200 al/well), the cells were fixed with PBS containing 2% paraformaldehyde and 3% sucrose for 15 min at room temperature. Binding of conjugates to cells was quantified by scanning the plate (filled with PBS, 100 al/well) with the Odyssey CLx (LI-COR) using the following settings: scan intensity, 8.5; scan focus offset 4; scan quality, highest; channel, 800; resolution, 169 pm. Then, the plates were incubated with 5 μg/ml of 4′,6-diamidino-2-phenylindole (DAPI) for 15 min, washed twice with PBS and read with a VICTOR3 plate reader (Perkin Elmer, Waltham, Mass., USA) to quantify the cell number in each well, using the following filters: excitation, 355±40 nm; emission, 460±25 nm (acquisition,1 s).
# αvβ8 [1] = molecular target: T1, αvβ8 (Homo sapiens, UniProt P06756+P26012); experiment: Direct binding of peptide-IRDye conjugates to αvβ8-coated microtiter plates; settings: purified integrin
# Method: (§4) Binding of 5a-IRDye and 2a-IRDye to microtiterplates coated with or without αvβ6 or αvβ8 as indicated in each panel. Various amounts of conjugates were added to microtiterplates and incubated for 1 h at room temperature (see Experimental section). After washing, bound fluorescence was measured using an Odyssey CLx (LI-COR) scanner. Representative images of the scanned plate and quantification of the binding are reported. Mean ±SE of triplicates. Effective concentration 50 (EC50, mean±SD) of the indicated number of independent experiments is shown.
# (§5) Binding of 5a-IRDye, 2a-IRDye and Cys-IRDye to αvβ6 and αvβ8 was determined by direct binding assays as follows: 96-well clear-bottom black microtiterplates (Corning® cat. 3601) were coated with 4 μg/ml αvβ6 or αvβ8, in Dulbecco's phosphate-buffered saline with Ca2+ and Mg2+(DPBS, 50 ul/well) and left to incubate over-night at 4° C. […] The bound fluorescence was then quantified by scanning the empty plates with an Odyssey CLx near-infrared fluorescence imaging system (LI-COR) using the following settings: scan intensity, 8.5; scan focus offset, 3; scan quality, highest; channel, 800; resolution, 169 pm.
# αvβ6 [2] = molecular target: T2, αvβ6 (Homo sapiens, UniProt P06756+P18564); experiment: Direct binding of peptide-IRDye conjugates to αvβ6-coated microtiter plates; settings: purified integrin
# T2 construct: recombinant human αvβ6 extracellular domain (R&D Systems); purchased R&D Systems (Minneapolis, Minn.)
# Method: as §4, §5
# 5637 cells [3] = experiment: Binding of peptide-IRDye conjugates to cultured 5637 cells; type: cell-based, human; settings: 5637 (αvβ6+ αvβ8+), 1 h at 37° C.
# Method: as §1, §2, §3
# [4] = test system: subcutaneous BxPC-3 tumors; settings: mouse, in vivo
# HUVEC = experiment: Binding of peptide-IRDye conjugates to cultured HUVEC; type: cell-based, human; settings: HUVEC (lacking these integrins)
# Method: as §1
# The binding of peptide-IRDye conjugates to BxPC-3, 5637, HUVECs, 4T1, K8484 and DT6606 cells was analyzed as follows. The cells were grown in 96-well clear-bottom black microtiterplates (Corning® cat. 3603, 2-3x10^4 cells/well, plated 48 h before the experiment). […] Binding of conjugates to cells was quantified by scanning the plate (filled with PBS, 100 al/well) with the Odyssey CLx (LI-COR) using the following settings: scan intensity, 8.5; scan focus offset 4; scan quality, highest; channel, 800; resolution, 169 pm. Then, the plates were incubated with 5 μg/ml of 4′,6-diamidino-2-phenylindole (DAPI) for 15 min, washed twice with PBS and read with a VICTOR3 plate reader (Perkin Elmer, Waltham, Mass., USA) to quantify the cell number in each well, using the following filters: excitation, 355±40 nm; emission, 460±25 nm (acquisition,1 s).
# in vivo = settings: female, NSG, mouse, iv, 1.28 nmol
# 5637 cells [5] = experiment: Binding assay of 5-Qdot to human 5637 cells (FACS, fluorescence microscopy); type: cell-based; settings: flow cytometry and fluorescence microscopy
# Method: FIG. 3. Binding of CgA-derived peptides to human bladder cancer 5637 cells. a) Effect of 1, 4, 5 and 6 on the binding of anti-αvβ6 mAb 10D5 to 5637 cells. Antibody binding quantification as determined by flow cytometry analysis (FACS) (see also FIG. 11A). Compounds were mixed with mAb 10D5 and added to cells; mAb binding was detected by FACS and inhibitory concentration (IC50, mean±SEM) was determined. Each point is in duplicate. b) Binding of 5-Qdot or *Qdot (control) to 5637 cells as measured by FACS. Representative FACS (left and middle) and quantification of Qdot binding (right) (circles: mean±SD of duplicates). c) Representative fluorescence bioimaging of 5637 cells incubated with 5-Qdot, *Qdot or diluent. […]
# Binding assays of 5-Qdot and *Qdot to 5637 cells were carried out as follows: 5637 cells were grown in chamber slides (6×10^4 cells/well). […] The cells were washed again with binding buffer, fixed with paraformaldehyde for 20 min, counterstained with DAPI (0.05 μg/ml, Invitrogen), and analyzed using a fluorescence microscopy (Carl Zeiss, Axioscop 40FL; excitation, filter, BP 560/40 nm; beam splitter filter, FT 585 nm; emission filter, 630/75 nm). […] After washing with 25 mM Hepes buffer, pH 7.4, containing 150 mM NaCl, 1 mM MgCl2, 1 mM MgCl2, the cells were fixed with formaldehyde and analyzed using the CytoFLEX S (Beckman Coulter).
# αvβ3 = molecular target: T3, αvβ3 (Homo sapiens, UniProt P05106+P06756); settings: Table 3a; Ki of 2 as determined in [21]; cited from earlier work
# T3 construct: purchased Immunological Sciences (Rome, Italy)
# αvβ8 [6] = molecular target: T1, αvβ8; experiment: Competitive integrin binding assay (isoDGR/STV-HRP probe), αvβ8-coated plates; settings: non-stapled control peptide with RGE
# Method: (§6) Peptide binding was measured by a competitive binding assay using as integrin probe a complex made by a N-terminal acetylated isoDGR peptide biotinylated at the E-amino group of the lysine, acetyl-Ciso[…]-bio (SEQ ID No. 29), and a streptavidin-peroxidase conjugate (called isoDGR/STV-HRP)[43].
# (§7) Each mixture was then added to integrin-coated wells and left to incubate for 2 h at room temperature. After washing with 25 mM Tris-HCl, pH 7.4, containing 150 mM sodium chloride, 1 mM magnesium chloride, 1 mM manganese chloride, each well was filled with a chromogenic solution (o-phenylenediamine dihydrochloride) and left to incubate for 30 min at room temperature. The chromogenic reaction was stopped by adding 1 N sulfuric acid. The absorbance at 490 nm was then measured using a microtiterplate reader. Ki values were calculated by non-linear regression analysis of competitive binding data using the “One site - Fit Ki” equation of the GraphPad Prism Software using the Kd values of the probe indicated above.
# α5β1 = molecular target: T4, α5β1 (Homo sapiens, UniProt P05556+P08648); settings: Table 3a; Ki of 2 as determined in [21]; cited from earlier work
# T4 construct: purchased Immunological Sciences (Rome, Italy)
# αvβ8 [7] = molecular target: T1, αvβ8; settings: Table 3a; Ki of 2 as determined in [21]; cited from earlier work
# αvβ5 = molecular target: T5, αvβ5 (Homo sapiens, UniProt P06756+P18084); settings: Table 3a; Ki of 2 as determined in [21]; cited from earlier work
# T5 construct: purchased Immunological Sciences (Rome, Italy)
# αvβ6 [8] = molecular target: T2, αvβ6; settings: cited from earlier work
# αvβ6 [9] = molecular target: T2, αvβ6; experiment: Competitive integrin binding assay (isoDGR/STV-HRP probe), αvβ6-coated plates; settings: non-stapled control peptide with RGE
# Method: as §6, §7
# T2 sequence (P06756 31-992 limits assumed): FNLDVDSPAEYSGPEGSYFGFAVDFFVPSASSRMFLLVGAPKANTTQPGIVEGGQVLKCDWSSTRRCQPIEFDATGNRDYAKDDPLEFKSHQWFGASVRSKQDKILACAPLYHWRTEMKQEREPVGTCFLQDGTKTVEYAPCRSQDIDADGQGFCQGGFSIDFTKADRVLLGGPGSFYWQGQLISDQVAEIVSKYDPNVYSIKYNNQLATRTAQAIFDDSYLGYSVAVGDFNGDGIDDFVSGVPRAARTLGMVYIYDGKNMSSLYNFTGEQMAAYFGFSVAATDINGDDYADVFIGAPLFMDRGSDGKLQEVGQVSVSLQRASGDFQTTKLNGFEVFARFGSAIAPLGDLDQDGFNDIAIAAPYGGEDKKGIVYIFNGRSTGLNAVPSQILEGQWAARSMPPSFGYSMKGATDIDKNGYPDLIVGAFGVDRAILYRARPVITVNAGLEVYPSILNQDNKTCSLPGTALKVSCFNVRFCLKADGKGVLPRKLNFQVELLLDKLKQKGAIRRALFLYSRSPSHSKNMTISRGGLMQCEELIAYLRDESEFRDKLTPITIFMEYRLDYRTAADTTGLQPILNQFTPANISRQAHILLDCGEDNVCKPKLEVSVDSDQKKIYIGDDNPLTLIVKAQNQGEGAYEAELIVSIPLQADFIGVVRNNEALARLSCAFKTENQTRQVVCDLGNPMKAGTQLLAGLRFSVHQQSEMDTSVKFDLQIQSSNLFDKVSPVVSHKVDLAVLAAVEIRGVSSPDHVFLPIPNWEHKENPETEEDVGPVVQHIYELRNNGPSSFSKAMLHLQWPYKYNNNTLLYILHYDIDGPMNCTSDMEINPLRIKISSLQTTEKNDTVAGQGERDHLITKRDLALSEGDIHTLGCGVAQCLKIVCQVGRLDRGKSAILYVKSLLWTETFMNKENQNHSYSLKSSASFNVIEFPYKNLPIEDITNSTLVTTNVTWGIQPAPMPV
# T2 sequence (P18564 22-709 limits assumed): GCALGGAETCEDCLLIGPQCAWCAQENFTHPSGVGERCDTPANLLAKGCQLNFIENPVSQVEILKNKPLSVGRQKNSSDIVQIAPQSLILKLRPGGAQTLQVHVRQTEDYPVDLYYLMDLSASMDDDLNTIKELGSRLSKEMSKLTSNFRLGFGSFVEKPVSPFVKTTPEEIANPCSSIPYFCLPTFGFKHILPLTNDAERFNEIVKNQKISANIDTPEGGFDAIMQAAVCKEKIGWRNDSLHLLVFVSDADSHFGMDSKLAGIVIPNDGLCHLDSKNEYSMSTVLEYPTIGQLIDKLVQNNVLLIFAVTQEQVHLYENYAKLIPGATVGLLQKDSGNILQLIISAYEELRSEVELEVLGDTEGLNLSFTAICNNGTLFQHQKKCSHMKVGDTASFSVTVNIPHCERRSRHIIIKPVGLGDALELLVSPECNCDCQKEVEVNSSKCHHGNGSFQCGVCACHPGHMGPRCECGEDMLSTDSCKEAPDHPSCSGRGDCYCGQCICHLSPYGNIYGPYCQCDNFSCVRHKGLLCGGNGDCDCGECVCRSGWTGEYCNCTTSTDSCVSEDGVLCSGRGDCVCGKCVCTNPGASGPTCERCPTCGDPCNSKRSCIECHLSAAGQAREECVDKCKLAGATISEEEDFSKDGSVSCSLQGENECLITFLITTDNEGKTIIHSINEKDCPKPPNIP
# T1 sequence (P06756 31-992 limits assumed): as the sequence (P06756 31-992 limits assumed) above
# T1 sequence (P26012 43-684 limits assumed): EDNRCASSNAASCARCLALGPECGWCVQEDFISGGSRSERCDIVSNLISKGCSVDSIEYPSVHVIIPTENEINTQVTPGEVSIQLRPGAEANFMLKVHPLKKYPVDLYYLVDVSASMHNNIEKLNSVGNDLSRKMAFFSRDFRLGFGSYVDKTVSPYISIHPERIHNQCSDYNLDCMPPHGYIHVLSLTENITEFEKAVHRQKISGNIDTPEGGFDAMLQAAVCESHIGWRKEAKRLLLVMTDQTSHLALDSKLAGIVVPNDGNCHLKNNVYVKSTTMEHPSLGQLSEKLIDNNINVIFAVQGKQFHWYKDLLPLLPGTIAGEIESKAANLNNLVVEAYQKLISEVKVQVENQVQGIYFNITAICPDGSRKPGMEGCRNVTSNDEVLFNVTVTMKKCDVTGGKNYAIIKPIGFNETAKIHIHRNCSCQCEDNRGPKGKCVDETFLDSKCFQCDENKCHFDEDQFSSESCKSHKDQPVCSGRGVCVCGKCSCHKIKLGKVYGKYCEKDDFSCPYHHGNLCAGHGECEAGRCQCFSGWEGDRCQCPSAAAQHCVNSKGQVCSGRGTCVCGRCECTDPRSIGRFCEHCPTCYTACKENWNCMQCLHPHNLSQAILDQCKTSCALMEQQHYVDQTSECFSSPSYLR
# T3 sequence (P06756 31-889 limits assumed): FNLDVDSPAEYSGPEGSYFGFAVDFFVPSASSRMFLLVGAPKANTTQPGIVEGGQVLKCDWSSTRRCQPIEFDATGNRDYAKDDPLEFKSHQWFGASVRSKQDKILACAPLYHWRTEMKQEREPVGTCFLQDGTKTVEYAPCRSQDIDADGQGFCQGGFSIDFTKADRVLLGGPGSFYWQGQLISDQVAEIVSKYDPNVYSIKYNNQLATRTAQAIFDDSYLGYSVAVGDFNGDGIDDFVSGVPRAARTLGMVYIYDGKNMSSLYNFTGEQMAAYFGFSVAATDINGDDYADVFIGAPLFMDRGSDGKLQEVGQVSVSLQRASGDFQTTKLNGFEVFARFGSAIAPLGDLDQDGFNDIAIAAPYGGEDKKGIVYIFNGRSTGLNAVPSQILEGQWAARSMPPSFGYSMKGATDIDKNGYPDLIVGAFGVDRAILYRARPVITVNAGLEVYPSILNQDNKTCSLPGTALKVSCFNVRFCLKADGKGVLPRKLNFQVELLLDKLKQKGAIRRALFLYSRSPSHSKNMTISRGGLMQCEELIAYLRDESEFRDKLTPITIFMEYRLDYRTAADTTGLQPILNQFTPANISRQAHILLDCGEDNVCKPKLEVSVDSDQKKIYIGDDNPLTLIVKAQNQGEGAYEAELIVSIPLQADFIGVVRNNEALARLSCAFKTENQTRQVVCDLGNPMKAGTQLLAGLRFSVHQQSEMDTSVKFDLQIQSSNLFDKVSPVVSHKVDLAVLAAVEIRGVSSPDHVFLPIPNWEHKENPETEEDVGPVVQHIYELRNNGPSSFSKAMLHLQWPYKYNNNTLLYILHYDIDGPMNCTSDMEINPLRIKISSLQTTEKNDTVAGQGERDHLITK
# T3 sequence (P06756 891-1048 partner limits assumed): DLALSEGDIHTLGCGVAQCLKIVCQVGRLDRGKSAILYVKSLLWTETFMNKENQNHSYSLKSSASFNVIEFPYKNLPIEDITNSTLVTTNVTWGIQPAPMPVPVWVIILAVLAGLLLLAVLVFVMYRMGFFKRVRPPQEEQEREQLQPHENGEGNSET
# T3 sequence (P05106 27-788): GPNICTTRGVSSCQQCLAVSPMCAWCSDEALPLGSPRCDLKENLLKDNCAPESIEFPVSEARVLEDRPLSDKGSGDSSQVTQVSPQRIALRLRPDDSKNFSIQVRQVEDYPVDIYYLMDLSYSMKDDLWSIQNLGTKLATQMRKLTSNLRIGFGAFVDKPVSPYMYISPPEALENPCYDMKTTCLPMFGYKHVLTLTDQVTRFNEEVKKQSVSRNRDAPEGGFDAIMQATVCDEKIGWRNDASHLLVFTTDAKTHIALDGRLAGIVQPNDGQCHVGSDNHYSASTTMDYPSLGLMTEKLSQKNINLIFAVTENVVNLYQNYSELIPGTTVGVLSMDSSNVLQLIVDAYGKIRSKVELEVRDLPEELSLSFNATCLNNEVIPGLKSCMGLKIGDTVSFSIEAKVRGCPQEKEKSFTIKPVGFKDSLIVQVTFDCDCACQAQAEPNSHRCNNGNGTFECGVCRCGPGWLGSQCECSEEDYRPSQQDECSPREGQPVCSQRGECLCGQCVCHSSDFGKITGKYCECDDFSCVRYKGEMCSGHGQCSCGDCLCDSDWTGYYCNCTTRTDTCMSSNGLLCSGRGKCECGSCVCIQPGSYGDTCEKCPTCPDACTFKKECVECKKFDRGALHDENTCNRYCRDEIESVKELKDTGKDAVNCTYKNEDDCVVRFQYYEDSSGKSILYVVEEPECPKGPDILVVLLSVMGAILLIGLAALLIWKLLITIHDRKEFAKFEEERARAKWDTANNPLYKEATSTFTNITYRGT
# T5 sequence (P06756 31-889 limits assumed): as the sequence (P06756 31-889 limits assumed) above
# T5 sequence (P06756 891-1048 partner limits assumed): as the sequence (P06756 891-1048 partner limits assumed) above
# T5 sequence (P18084 24-799): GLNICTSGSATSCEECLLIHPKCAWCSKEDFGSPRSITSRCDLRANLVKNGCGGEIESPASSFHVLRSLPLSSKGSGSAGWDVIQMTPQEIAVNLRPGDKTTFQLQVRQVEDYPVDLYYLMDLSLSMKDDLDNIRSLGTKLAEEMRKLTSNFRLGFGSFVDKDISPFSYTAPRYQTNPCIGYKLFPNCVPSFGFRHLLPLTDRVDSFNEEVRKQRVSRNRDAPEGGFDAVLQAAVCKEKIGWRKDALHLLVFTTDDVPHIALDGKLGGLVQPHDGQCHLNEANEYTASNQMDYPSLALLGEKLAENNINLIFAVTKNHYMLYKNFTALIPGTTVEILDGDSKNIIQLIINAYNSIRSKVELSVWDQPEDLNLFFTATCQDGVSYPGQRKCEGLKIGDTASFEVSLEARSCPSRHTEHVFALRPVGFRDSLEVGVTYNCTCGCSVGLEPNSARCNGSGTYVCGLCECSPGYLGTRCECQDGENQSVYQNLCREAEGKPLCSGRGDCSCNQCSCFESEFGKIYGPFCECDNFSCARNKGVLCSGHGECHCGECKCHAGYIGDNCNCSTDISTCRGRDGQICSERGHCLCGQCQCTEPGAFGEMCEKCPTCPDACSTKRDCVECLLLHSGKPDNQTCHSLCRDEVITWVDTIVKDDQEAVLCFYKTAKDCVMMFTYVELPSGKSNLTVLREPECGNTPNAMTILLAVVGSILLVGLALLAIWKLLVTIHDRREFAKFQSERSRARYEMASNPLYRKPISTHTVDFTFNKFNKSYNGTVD
compound,measurement,setting,value
2a-IRDye: control peptide 2a coupled via Cys to maleimide-IRDye 800CW (C(maleimide‑IRDye 800CW)FETLRGEERILSILRHQNLLKELQD) [reference compound],binding of conjugate to cells,BxPC-3 cells,not
same,binding to αvβ8-coated plates,αvβ8 [1],not
same,binding to αvβ6-coated plates,αvβ6 [2],not
same,binding of conjugate to cells,5637 cells [3],not
CC[C@H](C)[C@H](NC(=O)[C@H](CCCNC(=N)N)NC(=O)[C@H](CC(C)C)NC(=O)[C@H](CC(=O)O)NC(=O)CNC(=O)[C@H](CCCNC(=N)N)NC(=O)[C@H](CC(C)C)NC(=O)[C@@H](NC(=O)[C@H](CCC(=O)O)NC(=O)[C@H](Cc1ccccc1)NC(=O)[C@@H](N)CSC1CC(=O)N(CCNC(=O)CCCCCN2C(=CC=C3CCCC(C=CC4=[N+](CCCCS(=O)(=O)[O-])c5ccc(S(=O)(=O)O)cc5C4(C)C)=C3Oc3ccc(S(=O)(=O)O)cc3)C(C)(C)c3cc(S(=O)(=O)O)ccc32)C1=O)[C@@H](C)O)C(=O)N[C@@H](CC(C)C)C(=O)N[C@@H](CO)C(=O)N[C@H](C(=O)N[C@@H](CC(C)C)C(=O)N[C@@H](CCCNC(=N)N)C(=O)N[C@H]1Cc2cn(nn2)CCCC[C@@H](C(=O)N[C@@H](CCCCN)C(=O)N[C@@H](CCC(=O)O)C(=O)N[C@@H](CC(C)C)C(=O)N[C@@H](CCC(N)=O)C(=O)N[C@@H](CC(=O)O)C(N)=O)NC(=O)[C@H](CC(C)C)NC(=O)[C@H](CC(N)=O)NC(=O)[C@H](CCC(N)=O)NC1=O)[C@@H](C)CC (stereo partly shown) [5a-IRDye],binding of conjugate to cells,BxPC-3 cells,"could bind, in a dose dependent manner"
same,tumor signal twenty-four hours after injection,[4],significant signal was still visible
same,time of maximal tumor uptake after injection,[4]; iv,1 h
same,binding of conjugate to cells,HUVEC,little or not
same,tissue to tissue ratio at 24 h,in vivo,12
same,binding of conjugate to cells,5637 cells [3],"could bind, in a dose dependent manner"
*Qdot: control nanoconjugate without the targeting ligand; Qdot coupled to control peptide cyclic head-to-tail c(CGARAG) (cyclo(CGARAG); also: coupled to Qdot (control nanoconjugate)) [reference compound],binding of Qdot conjugate to cells,5637 cells [5],not
FETLRGEERILSILRHQNLLKELQD [peptide 2],Ki,αvβ3,> 50 µM
same,binding to αvβ8,αvβ8 [6],unable to bind these integrins
same,Ki,α5β1,> 50 µM
same,Ki,αvβ8 [7],> 50 µM
same,Ki,αvβ5,> 50 µM
same,Ki,"αvβ6 [8]; Table 3a, Ki of 2 as determined in [21], read-out: Ki αvβ6",> 50 µM
same,Ki,"αvβ6 [8]; peptide with RGE instead of RGD, read-out: Ki",> 50 µM
same,binding to αvβ6,αvβ6 [9],unable to bind these integrins
